Test results reported in ChEMBL document CHEMBL1201862, “PubChem BioAssay data set” (2004).
The source made the active and inactive calls.

How the values were obtained:
[1] = target: T1, Heat shock factor protein 1 (Mus musculus, UniProt P38532); test: HSF1 potentiators in luciferase reporter cells, confirmation, cell-based, NIH3T3, luminescence, dose retest (AID 435004); assay type: functional;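 note: stress induced by proteasome inhibitor MG132 added 30 min after compound; luciferase reporter driven by HSF1 response element in NIH3T3 cells; actives raise luminescence as potentiators of the MG132 stress response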
T1 sequence (P38532 whole entry): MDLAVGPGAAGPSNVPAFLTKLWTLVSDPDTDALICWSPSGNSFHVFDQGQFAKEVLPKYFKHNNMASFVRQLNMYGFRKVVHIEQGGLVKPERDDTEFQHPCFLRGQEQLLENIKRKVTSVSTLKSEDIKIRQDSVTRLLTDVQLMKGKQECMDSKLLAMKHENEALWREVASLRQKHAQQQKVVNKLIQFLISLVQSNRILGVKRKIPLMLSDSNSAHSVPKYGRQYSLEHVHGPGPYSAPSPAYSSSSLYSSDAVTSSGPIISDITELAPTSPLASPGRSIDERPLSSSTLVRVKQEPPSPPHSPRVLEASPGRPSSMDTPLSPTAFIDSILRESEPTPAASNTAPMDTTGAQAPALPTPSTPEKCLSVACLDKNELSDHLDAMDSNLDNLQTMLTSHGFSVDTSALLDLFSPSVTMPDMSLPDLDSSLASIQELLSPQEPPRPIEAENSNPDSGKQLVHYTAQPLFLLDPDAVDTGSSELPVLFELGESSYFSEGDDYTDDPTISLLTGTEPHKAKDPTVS

[2] = target: T2, Rac GTPase-activating protein 1 (Homo sapiens, UniProt Q9H0H5); test: MgcRacGAP GTPase-activating activity inhibitors, confirmation, biochemical, ADP Hunter fluorescence, primary and confirmatory (AID 624330); assay type: functional
T2 sequence (Q9H0H5 whole entry): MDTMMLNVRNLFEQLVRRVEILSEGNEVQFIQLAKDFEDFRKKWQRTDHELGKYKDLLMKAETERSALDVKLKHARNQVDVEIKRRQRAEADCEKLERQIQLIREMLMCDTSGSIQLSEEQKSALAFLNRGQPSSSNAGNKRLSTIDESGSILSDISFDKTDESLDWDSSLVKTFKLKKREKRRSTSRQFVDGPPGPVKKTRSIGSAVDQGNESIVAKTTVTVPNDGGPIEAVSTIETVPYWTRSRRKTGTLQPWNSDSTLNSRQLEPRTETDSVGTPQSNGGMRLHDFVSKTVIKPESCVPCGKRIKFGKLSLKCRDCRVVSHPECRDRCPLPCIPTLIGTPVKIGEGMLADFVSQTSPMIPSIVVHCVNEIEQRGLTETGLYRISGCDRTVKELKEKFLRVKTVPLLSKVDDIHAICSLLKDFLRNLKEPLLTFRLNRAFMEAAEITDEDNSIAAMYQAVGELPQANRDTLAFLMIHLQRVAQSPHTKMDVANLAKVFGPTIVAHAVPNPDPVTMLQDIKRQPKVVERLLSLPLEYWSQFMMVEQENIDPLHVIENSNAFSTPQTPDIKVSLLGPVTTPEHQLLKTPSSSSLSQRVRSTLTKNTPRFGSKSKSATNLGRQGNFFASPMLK

[3] = HeLa cell cytotoxicity, dose response, cytotoxicity control for MgcRacGAP inhibitor project (AID 624300); assay type: functional
[4] = growth suppression of beta-catenin-knockout colon cells, dose response, cell-based, HCT116, human colon tumor (AID 1045); assay type: functional;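 note: HCT116 colon tumor cells with beta catenin knocked out; cells exposed to compound for 60 hours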
[5] = target: T3, Mannose-6-phosphate isomerase (Homo sapiens, UniProt P34949); test: human PMI inhibitors, high substrate, primary screen, biochemical, fluorescence intensity, high mannose 6-phosphate (AID 1220)
T3 sequence (P34949 whole entry): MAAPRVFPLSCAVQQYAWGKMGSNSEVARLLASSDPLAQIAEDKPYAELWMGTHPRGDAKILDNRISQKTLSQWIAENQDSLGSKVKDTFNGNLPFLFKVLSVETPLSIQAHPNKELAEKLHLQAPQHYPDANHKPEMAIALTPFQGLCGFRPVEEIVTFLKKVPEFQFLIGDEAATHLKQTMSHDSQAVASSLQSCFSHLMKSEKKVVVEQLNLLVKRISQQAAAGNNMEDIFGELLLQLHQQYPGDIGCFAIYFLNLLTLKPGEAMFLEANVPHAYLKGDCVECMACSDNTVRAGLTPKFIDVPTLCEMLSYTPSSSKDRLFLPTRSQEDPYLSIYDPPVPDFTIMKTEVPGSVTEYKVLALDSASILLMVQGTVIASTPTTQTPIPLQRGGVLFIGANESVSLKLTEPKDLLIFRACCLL

Nonstructural protein 1 = Nonstructural protein 1 (Influenza A virus, UniProt Q194T2); assay type: functional, Influenza A virus (A/California/07/2009(H1N1))
[6] = growth suppression of PTEN-null colon cells, dose response, cell-based, HCT116 PTEN knockout (AID 1047); assay type: functional;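 note: HCT116 colon tumor cells with PTEN knocked out; cells exposed to compound for 60 hours before readout; potency for loss of cell viability measured by luminescence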
[7] = target: Neurotensin receptor type 1 (Homo sapiens, UniProt P30989); assay type: functional;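 note: Image-based confirmatory dose-response assay measuring agonist activity at NTR1; NTR1-expressing U2OS osteosarcoma cells imaged for beta-arrestin GFP spot formation; agonist potency where compounds increase beta-arrestin recruitment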
MDCK = test: antiviral activity against H1N1 influenza, dose response, cell-based, strain KY136 (AID 540257); assay type: functional; conditions: Canis lupus familiaris
[8] = inhibitors of firefly luciferase expression or activity, dose response, H4 neuroglioma cells, luminescence (AID 1990); assay type: functional, cell-based
[9] = Luminescence Cell-Based Dose Response HTS to Identify Inhibitors of 5'UTR Stem-Loop Driven Prion Protein mRNA Translation in H4 Neuroglioblastoma Cells. [Related pubchem assays: 1827 (Project Summary), 1813 (Primary HTS)]; assay type: functional
A-375 [10] = test: A375 melanoma cell viability reduction, dose response, counter-screen for MITF modulator project, cherry-pick samples, set 2 (AID 540335); assay type: functional, cell-based; conditions: Homo sapiens
[11] = inhibitors of SNCA 5'UTR-driven reporter translation, confirmation, H4 neuroglioma cells, luminescence (AID 1988); assay type: functional, cell-based
A-375 [12] = test: MITF: Counter assay: A375 proliferation Measured in Cell-Based System Using Plate Reader - 2084-03_Inhibitor_Dose_DryPowder_Activity. [Related pubchem assays (depositor defined):AID488944]; assay type: functional; conditions: Homo sapiens
[13] = target: T4, Microphthalmia-associated transcription factor (Homo sapiens, UniProt O75030); test: TRPM1 promoter luciferase signal decrease, dose response, MITF inhibitor project, cell-based, SK-MEL-5, cherry-picked, set 3 (AID 493073); assay type: functional
T4 sequence (O75030 whole entry): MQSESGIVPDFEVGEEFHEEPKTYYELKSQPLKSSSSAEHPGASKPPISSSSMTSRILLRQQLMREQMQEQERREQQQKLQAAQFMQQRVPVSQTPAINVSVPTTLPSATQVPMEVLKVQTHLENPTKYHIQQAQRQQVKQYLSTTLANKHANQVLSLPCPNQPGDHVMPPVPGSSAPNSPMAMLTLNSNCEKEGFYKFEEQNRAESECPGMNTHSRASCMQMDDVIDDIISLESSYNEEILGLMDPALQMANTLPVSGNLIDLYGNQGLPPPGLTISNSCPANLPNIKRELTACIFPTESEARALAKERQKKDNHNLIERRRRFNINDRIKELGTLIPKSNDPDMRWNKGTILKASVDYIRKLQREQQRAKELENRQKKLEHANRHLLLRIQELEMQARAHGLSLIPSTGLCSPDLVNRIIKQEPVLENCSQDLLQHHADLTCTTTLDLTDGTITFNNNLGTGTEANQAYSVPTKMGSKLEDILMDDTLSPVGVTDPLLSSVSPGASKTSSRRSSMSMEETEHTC

[14] = target: 5-hydroxytryptamine receptor 5A (Homo sapiens, UniProt P47898); test: Counterscreen for agonists of OPRM1-OPRD1 heterodimerization: luminescence-based cell-based high throughput dose response assay to identify agonists of 5-hydroxytryptamine (serotonin) 5A receptor (HTR5A). [Related pubchem assays (depositor defined):AID504326, AID504355, AID504692, AID504904, AID504905]; assay type: functional
[15] = target: Delta-type opioid receptor (Homo sapiens, UniProt P41143); test: Counterscreen for agonists of heterodimerization of the mu 1 (OPRM1) and delta 1 (OPRD1) opioid receptors: Luminescence-based cell-based high throughput dose response assay to identify agonists of OPRD1 homodimerization. [Related pubchem assays (depositor defined):AID504326, AID504355, AID504692, AID504904, AID504905]; assay type: functional
Mu-type opioid receptor = Mu-type opioid receptor (Homo sapiens, UniProt P35372); test: Counterscreen for agonists of heterodimerization of the mu 1 (OPRM1) and delta 1 (OPRD1) opioid receptors: Luminescence-based cell-based high throughput dose response assay to identify agonists of OPRM1 homodimerization.; assay type: functional;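 note: U2OS cells expressing OPRM1 and beta-arrestin as split beta-galactosidase partners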
[16] = target: T5, Short transient receptor potential channel 4 (Mus musculus, UniProt Q9QUQ5); test: mouse TRPC4 channel activators, dose response, cell-based, HEK293 TRPC4/mu-opioid, Fluo-4 calcium (AID 434937); assay type: functional
T5 sequence (Q9QUQ5 whole entry): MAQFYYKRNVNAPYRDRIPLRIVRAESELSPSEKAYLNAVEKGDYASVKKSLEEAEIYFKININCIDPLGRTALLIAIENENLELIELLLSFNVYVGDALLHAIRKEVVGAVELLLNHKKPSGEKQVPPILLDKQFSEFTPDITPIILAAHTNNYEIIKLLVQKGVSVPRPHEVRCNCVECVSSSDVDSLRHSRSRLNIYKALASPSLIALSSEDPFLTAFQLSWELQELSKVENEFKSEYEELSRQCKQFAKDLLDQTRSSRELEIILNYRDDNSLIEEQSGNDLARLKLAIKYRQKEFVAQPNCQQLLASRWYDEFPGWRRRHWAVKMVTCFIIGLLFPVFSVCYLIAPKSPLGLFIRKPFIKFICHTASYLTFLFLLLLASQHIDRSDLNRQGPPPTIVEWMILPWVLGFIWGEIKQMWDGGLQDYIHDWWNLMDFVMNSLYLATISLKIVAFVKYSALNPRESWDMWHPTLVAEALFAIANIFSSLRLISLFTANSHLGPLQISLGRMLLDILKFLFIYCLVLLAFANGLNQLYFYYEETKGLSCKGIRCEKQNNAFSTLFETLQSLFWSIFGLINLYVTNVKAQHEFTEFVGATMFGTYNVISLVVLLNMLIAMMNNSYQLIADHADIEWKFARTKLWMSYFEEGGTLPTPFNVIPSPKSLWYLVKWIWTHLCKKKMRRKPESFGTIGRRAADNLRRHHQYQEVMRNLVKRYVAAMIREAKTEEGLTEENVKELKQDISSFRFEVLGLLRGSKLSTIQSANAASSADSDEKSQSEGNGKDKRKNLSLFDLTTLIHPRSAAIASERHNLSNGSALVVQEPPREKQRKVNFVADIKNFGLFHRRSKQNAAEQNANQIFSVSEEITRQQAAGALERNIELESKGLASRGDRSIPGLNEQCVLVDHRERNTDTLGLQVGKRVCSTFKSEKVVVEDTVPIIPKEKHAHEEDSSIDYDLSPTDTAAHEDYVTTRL

[17] = target: Opioid receptors; mu & delta (Homo sapiens, UniProt P41143+P35372); test: agonists of MOR-DOR heterodimerization, dose response, cell-based, luminescence (AID 588407); assay type: functional
[18] = target: Dual specificity protein phosphatase 3 (Homo sapiens, UniProt P51452); test: SAR VHR1 Fluorescent Assay for In Vitro dose response studies Set 3. [Related pubchem assays (depositor defined):AID1654, AID1661, AID1878]; assay type: functional
[19] = target: Dual specificity protein kinase CLK1 (Homo sapiens, UniProt P49759); test: CLK1 kinase inhibitors, off-target check, dose response, selectivity assay for Dyrk1A inhibitor project, biochemical, cherry-picked samples (AID 588811)
CAAX prenyl protease 2 [20] = target: CAAX prenyl protease 2 (Homo sapiens, UniProt Q9Y256); test: human Rce1 protease inhibitors, dose response, biochemical, yeast membranes, quenched-peptide fluorescence, cherry-pick (AID 588849)
CAAX prenyl protease 2 [21] = target: CAAX prenyl protease 2 (Saccharomyces cerevisiae S288c, UniProt Q03530); assay type: biochemical
[22] = target: Voltage-gated inwardly rectifying potassium channel KCNH2 (Homo sapiens, UniProt Q12809); conditions: Potency;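 note: confirmatory quantitative high-throughput screen measuring inhibition of hERG channel activity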
Sequence of Voltage-gated inwardly rectifying potassium channel KCNH2 (Q12809 whole entry): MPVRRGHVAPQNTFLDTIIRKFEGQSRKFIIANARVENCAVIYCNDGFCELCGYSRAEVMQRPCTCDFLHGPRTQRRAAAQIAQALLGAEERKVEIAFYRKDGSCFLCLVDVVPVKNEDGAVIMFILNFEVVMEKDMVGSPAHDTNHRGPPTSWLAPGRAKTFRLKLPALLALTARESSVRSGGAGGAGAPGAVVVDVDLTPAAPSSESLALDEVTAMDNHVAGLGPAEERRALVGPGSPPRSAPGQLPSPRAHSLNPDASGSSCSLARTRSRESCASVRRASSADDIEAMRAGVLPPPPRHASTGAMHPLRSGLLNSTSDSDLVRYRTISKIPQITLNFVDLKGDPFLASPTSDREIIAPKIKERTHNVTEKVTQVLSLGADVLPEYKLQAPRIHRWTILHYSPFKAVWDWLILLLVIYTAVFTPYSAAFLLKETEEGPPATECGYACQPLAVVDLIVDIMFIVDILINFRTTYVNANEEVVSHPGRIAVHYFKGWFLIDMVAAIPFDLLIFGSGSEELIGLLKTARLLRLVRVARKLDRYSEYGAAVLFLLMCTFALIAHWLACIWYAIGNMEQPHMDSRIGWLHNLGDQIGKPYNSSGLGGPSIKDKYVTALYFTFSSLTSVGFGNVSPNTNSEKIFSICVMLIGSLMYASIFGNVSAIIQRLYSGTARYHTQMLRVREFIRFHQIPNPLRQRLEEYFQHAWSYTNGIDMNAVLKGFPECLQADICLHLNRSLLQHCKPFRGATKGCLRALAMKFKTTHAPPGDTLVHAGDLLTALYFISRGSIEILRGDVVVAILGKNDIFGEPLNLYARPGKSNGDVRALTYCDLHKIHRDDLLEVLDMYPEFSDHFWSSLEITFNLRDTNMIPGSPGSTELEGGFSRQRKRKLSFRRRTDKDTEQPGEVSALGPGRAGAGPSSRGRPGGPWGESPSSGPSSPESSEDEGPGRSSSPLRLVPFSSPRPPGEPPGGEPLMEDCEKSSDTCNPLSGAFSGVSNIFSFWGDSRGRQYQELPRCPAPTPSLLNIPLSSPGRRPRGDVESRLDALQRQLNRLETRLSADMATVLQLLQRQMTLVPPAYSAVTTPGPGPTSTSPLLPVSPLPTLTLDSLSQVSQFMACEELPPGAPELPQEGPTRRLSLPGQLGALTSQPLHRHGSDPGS

Sequence of CAAX prenyl protease 2 (Homo sapiens, UniProt Q9Y256) (Q9Y256 whole entry): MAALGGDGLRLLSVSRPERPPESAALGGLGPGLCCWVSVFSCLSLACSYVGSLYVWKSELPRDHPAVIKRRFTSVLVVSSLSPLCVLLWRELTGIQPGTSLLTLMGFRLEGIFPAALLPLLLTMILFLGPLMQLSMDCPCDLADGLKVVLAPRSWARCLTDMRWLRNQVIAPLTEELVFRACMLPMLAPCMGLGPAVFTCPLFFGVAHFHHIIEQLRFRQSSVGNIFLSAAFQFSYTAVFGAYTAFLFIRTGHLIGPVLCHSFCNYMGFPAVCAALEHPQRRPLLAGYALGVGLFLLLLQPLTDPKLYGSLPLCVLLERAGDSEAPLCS
Sequence of Delta-type opioid receptor (P41143 whole entry): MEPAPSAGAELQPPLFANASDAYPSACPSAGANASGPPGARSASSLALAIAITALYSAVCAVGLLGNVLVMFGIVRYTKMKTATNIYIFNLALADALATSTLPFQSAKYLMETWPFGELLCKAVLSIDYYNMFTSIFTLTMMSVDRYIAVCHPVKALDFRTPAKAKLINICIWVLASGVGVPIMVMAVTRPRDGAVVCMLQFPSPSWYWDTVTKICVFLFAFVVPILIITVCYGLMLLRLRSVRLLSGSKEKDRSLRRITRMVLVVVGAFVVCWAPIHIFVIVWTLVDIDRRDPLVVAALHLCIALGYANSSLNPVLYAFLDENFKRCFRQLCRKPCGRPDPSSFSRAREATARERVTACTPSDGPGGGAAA
Sequence of Mu-type opioid receptor (P35372 whole entry): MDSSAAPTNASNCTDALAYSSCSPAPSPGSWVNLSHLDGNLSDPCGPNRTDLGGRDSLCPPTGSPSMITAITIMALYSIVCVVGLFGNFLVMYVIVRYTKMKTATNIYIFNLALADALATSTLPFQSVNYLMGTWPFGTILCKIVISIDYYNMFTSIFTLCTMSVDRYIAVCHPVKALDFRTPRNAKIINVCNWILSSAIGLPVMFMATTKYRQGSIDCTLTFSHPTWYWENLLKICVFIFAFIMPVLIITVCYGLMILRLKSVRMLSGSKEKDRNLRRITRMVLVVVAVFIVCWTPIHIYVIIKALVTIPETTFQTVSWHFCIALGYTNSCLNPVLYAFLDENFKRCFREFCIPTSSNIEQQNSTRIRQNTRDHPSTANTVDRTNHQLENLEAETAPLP
Sequence of Dual specificity protein kinase CLK1 (P49759 whole entry): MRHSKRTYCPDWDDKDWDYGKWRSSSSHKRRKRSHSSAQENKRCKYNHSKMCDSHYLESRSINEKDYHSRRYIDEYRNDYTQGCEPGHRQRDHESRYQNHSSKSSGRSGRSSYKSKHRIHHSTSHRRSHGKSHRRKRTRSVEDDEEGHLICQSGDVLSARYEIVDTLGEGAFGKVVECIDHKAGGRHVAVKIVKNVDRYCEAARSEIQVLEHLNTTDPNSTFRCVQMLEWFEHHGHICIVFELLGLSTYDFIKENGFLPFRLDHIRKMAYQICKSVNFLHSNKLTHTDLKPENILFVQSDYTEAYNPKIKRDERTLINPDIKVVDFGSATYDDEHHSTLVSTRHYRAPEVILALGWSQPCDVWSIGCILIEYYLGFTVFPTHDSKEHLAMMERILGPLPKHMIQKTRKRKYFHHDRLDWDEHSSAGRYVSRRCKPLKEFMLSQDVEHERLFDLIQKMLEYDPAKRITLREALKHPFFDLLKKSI
Sequence of Nonstructural protein 1 (Q194T2 whole entry): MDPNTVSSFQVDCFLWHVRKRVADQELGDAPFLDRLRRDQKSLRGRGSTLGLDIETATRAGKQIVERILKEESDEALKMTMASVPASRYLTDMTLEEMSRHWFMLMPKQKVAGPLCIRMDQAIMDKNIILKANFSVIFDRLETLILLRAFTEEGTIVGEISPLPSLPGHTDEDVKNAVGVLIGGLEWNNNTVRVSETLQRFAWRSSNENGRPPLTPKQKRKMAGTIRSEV
Sequence of 5-hydroxytryptamine receptor 5A (P47898 whole entry): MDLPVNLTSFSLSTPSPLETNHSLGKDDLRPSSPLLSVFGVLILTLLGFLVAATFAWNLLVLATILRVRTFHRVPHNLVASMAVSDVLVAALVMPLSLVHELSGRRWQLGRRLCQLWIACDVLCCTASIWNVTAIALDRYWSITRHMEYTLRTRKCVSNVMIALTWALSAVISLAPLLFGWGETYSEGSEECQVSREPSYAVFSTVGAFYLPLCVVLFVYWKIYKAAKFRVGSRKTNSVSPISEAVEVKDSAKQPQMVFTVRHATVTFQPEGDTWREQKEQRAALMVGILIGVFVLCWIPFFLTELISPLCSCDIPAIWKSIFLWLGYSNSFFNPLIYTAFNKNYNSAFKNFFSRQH
Sequence of Neurotensin receptor type 1 (P30989 whole entry): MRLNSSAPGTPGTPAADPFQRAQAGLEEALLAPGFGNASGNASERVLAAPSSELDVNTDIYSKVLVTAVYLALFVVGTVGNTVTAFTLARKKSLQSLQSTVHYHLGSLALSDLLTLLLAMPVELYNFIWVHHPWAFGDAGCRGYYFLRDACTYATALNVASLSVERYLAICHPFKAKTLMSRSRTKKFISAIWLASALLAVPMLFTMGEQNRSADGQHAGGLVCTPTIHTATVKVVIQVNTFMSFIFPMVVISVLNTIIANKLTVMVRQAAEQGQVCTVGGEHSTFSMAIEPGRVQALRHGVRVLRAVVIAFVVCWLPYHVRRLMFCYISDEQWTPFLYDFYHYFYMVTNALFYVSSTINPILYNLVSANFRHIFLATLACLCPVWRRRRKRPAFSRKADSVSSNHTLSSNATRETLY
Sequence of CAAX prenyl protease 2 (Saccharomyces cerevisiae S288c, UniProt Q03530) (Q03530 whole entry): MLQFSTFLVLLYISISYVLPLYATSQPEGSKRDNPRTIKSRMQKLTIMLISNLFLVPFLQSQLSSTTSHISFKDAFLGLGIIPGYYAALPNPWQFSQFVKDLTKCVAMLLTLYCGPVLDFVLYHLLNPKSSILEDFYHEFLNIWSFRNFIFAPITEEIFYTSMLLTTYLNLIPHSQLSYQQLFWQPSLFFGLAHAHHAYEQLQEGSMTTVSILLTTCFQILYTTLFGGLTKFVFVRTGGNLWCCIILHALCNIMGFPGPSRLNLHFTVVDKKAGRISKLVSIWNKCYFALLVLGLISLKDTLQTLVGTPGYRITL
Sequence of Dual specificity protein phosphatase 3 (P51452 whole entry): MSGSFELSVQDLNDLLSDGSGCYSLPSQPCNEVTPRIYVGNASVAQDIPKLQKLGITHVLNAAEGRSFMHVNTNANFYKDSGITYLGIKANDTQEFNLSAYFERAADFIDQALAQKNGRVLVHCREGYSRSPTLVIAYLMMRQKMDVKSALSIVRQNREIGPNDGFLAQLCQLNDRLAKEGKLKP

COC(=O)c1ccc2c(c1)C(C)(C)C(/C=C/c1ccc(O)cc1)=[N+]2C
EC50 [1]: > 260 µM (inconclusive)
IC50 [2]: 29.5 µM (active)
CC50 [3]: 35.1 µM (active)
EC50 [4]: 2.15 µM (active)
IC50 [5]: > 50 µM (not active)
IC50 (Nonstructural protein 1): 20.2 µM (active)
EC50 [6]: 2.06 µM (active)
EC50 [7]: 7.59 µM (active)
IC50 (MDCK): 5.29 µM (active)

CC(=O)c1ccc(S(=O)(=O)N2CCN(C(=O)/C=C/c3ccc4ccccc4n3)CC2)cc1
EC50 [8]: 13.4 µM (active)
EC50 [9]: 11.8 µM (active)
AC50 (A-375 [10]): > 35 µM (active)
EC50 [11]: 10.3 µM (active)
AC50 (A-375 [12]): > 35 µM (active)
AC50 [13]: 12 µM (active)

CN(C)CCCN(C(=O)c1ccc(S(=O)(=O)N(C)C2CCCCC2)cc1)c1nc2ccc(F)cc2s1.Cl
EC50 [14]: > 92.5 µM (inactive)
EC50 [15]: 69.2 µM (inactive)
EC50 (Mu-type opioid receptor): 4.85 µM (active)
EC50 [16]: 1.88 µM (active)
EC50 [17]: > 0.3805 µM

Cn1cnnc1SCC(=O)Nc1ccc2nc(SCC(=O)c3ccccc3)sc2c1
IC50 [18]: > 66 µM (inactive)

Clc1ccc(CNc2nccc(-c3ccc4c(c3)OCCO4)n2)cc1Cl
AC50 [19]: 0.0206 µM (active)

CC1Oc2ccccc2C=C1/C=N/NC(=O)[C@@H](C)NC(=O)OC(C)(C)C (stereo not given in full)
AC50 (CAAX prenyl protease 2 [20]): 23.1 µM (active)
AC50 (CAAX prenyl protease 2 [21]): 57 µM (active)

COC(=O)c1c(-c2cc(OC)c(OC)c(OC)c2)c2ccc(OCc3ccccn3)cc2c(=O)n1-c1ccc(N)cc1
AC50 [22]: 5.62 µM (inconclusive)
